Read-outs that look alike come from different tables or passages of the source.
Legend:
[1] = H361-CMR Reproductive Toxicity Category 2; cited from earlier work
[2] = Photo-DSC of silicone composition (time and value of thermal peak); details: 365 nm, 14.4 mW/cm^2, 10 ppm Pt, N2 purge
[3] = Solubility of the catalyst in hexamethyldisiloxane (HMDSO); format: physicochemical
Source text: Continue additions until obtaining a clear medium, without observing precipitate at the end of stirring.

[4] = Solubility / appearance of catalyst in the silicone composition; details: Photo-DSC formulation, organopolysiloxane A + B, 10 ppm Pt (Example 3)
[5] = Crosslinking time of silicone composition under UV LED irradiation (catalyst activity); details: UV LED 365 nm, 10 ppm Pt, SiH/Si(vinyl)=2:1, bulk setting time
Procedure: Irradiation: UV LED lamp with a wavelength of 365 nm.
The crosslinking time is measured. It corresponds to the bulk setting time of the system (the bar magnet can no longer stir the system).

[6] = Stability of the catalysed silicone solution without irradiation; format: physicochemical; details: with organopolysiloxanes A and B, 10 ppm Pt
Procedure: A solution comprising a catalyst C1 or C5, together with organopolysiloxanes A and B was prepared according to example 2 (concentration in metal Pt of 10 ppm).
The stability of the solutions was then determined.

[7] = system: Escherichia coli WP2 (uvrA-) (pKM 101); test: Ames test (OECD test 471, Bacterial Reverse Mutation Test); format: cell-based; details: with or without metabolic activation; 5000, 1500, 150 and 50 μg/plate
Procedure: (§1) In fact, this compound was analyzed according to the Ames test: the Ames test is a widely used method which uses bacteria for verifying whether a given chemical product may cause DNA mutations in the tested organism.
(§2) Toxicity test (Ames Test, according to the OECD guidelines for chemical product tests-test 471: Bacterial Reverse Mutation Test): Solutions were prepared with Pt(octane-2,4-dione)2.

[8] = system: Salmonella typhimurium TA 1535, TA 1537, TA 98, TA 100; test: as above; format: cell-based; details: with or without metabolic activation; 5000, 1500, 150 and 50 μg/plate
Procedure: as §1, §2

Molecule: CC(=O)/C=C(/C)O.CC(=O)/C=C(/C)O.[Pt] [Catalyst C2, Pt(acac)2]
- reproductive toxicity classification [1]: suspected of damaging fertility or the unborn child
- Time to arrive at the thermal peak [2]: 140 s
- Value of the thermal peak (mW/s) [2]: 0.65 mW/s

Molecule: CCC(=O)C=C(CC)[O][Pt][O]C(=CC(=O)CC)CC [Catalyst C3, Pt(heptane-3,5-dione)2]
- Solubility [3]: 2500 ppm Pt
- Time to arrive at the thermal peak [2]: 240 s
- Value of the thermal peak (mW/s) [2]: 0.53 mW/s
- Appearance [4]: Clear yellow

Molecule: CCC(=O)C=C(C)[O][Pt][O]C(C)=CC(=O)CC [Catalyst C4, Pt(hexane-2,4-dione)2]
- Solubility ([3]; in hexamethyldisiloxane (HMDSO) at 20° C.): 500 ppm Pt
- Time to arrive at the thermal peak [2]: 235 s
- Value of the thermal peak (mW/s) [2]: 0.47 mW/s
- Appearance [4]: Hazy yellow

Molecule: Pt(octane-2,4-dione)2 [C1 Trans:cis ratio = 11:89]
- Crosslinking time [5]: 1 min

Molecule: Pt(octane-2,4-dione)2 [Catalyst C1]
- time solution remained stable ([6]; exposed to ambient light): over 7 hours
- time solution remained stable ([6]; protected from light): over 20 days
- Solubility [3]: 7000 ppm Pt
- mutagenic modification (Ames test) [7]: did not induce any mutagenic modification
- mutagenic modification (Ames test) [8]: did not induce any mutagenic modification

Molecule: cis-Pt(octane-2,4-dione)2 [C1 Cis]
- Time to arrive at the thermal peak [2]: 140 s
- Value of the thermal peak (mW/s) [2]: 0.85 mW/s
- Appearance [4]: Soluble clear

Molecule: trans Pt(octane-2,4-dione)2 [C1 Trans]
- Time to arrive at the thermal peak [2]: 140 s
- Value of the thermal peak (mW/s) [2]: 0.78 mW/s
- Appearance [4]: Soluble clear
